From US6379965B1, “Multifunctional complexes for gene transfer into cells comprising a nucleic acid bound to a polyamine and having an endosome disruption agent” (American Home Products Corporation, priority 1994, dated 2002)

Tests used:
Muscle Cells = assay: Transfection of muscle cells in vivo with pCMVβ plasmid, β-galactosidase staining of quadriceps; parameters: species or system BALB-C mice; details: 100 μg pCMVβ plasmid + 100 μg compound in 100 μL PBS, injected into rear quadriceps, approx. 96 hrs; control plasmid in 0.25% bupivicaine hydrochloride
Method: Solutions were prepared containing 100 μg of pCMVβ plasmid and 100 μg of either N^4-octylspermidine, N^4-dodecylspermidine or N^4-(5-cholestene-3′β-oxycarbonyl)aminopentyl)spermidine, each in 100 μL of phosphate buffered saline. The plasmid solution (100 μL) was injected into the rear quadriceps of 6-12 week old BALB-C mice. The mice were sacrificed approximately 96 hrs later and the entire quadriceps muscle tissue was removed. The muscle was fixed with formalin for 2 hrs, and assayed for β-galactosidase activity using 5-bromo-4-chloro-3-indolyl-β-D-galactopyranoside (1 mg/mL in tris/EDTA pH 8.5). All three injections were scored as positive since the blue color was more intense than the control: injection of 100 μg of pCMVβ plasmid injected in 100 μL of 0.25% bupivicaine hydrochloride in citrate buffer pH 6.0.

[1] = system: Human hepatocellular carcinoma HuH7 cells; assay: Transfection of adherent HuH7 cells in culture with pCMVβ plasmid, β-galactosidase activity; type: cell-based; details: HuH7 lysate; 0.5 μg pCMVβ plasmid + 0.5 μg tri-galactosyl-lysyl-lysyl aminopentyl spermidine + 2.5 μg cholesteryl-oxycarbonyl aminopentyl spermidine in 100 μL Optimem; after 30 min
Method: Human hepatocellular carcinoma HuH7 cells were grown and seeded into a 96 well plate with 1-2×10^4 cells in 100 μL of minimal essential media α, modification with 10% serum. The plates were incubated in a 37° CO2 incubator until the cells were 60-80% confluent (approximately 24 hrs). The media was removed and the cells washed once with Optimem® (serum free media). Optimem® (100 μL) containing 0.5 μg of pCMVβ plasmid (from Clonetech, No. 6177-1), 0.5 μg of N^4-(5-[N^2,N^6-bis(β-3′-propionyl galactosyl-β1-4-thioglucoside)lysyl-N^6-(β-3′-propionyl galactosyl-β1-4-thioglucoside)lysyl]aminopentyl)-spermidine and 2.5 μg of N^4-(5-cholestene-3′β-oxycarbonyl)-aminopentyl)spermidine was added to the cells. The cells were incubated with the mixture for 4 hrs in a 37° CO2 incubator; thereafter 100 μL of media containing 20% serum was added and the incubation continued for an additional 20 hrs. Cells lysed with 0.5% NP-40 in 140 mM NaCl, 10 mM tris, 1.5 mM MgCl2 were assayed for β-galactosidase activity using o-nitrophenyl β-D-galactopyranoside, and gave A405=1.35 after 30 min. Cells grown in 6 well plates (25 mm diameter) and treated similarly were fixed with 2% paraformaldehyde and assayed for β-galactosidase activity using 5-bromo-4-chloro-3-indolyl β-D-galactopyranoside (J. Sambrook, et al., Molecular Cloning: A Laboratory Manual, Cold Spring Harbor, 1989).

Liver Cells = assay: Transfection of liver cells in vivo with pHBVSA plasmid, serum hepatitus B surface antigen immunoassay; parameters: species or system BALB-C mice; details: 10 μg pHBVSA plasmid + 5 μg tri-galactosyl compound + 25 μg cholesteryl compound in 100 μL PBS, tail vein; 48 hrs post-injection; example in present tense
Method: […] The plasmid solution (100 μL) is injected into the tail vein of 6-12 week old BALB-C mice. The mice are sacrificed 48-120 hrs later and the serum tested for hepatitus B surface antigen using a commercial enzyme-linked immunoassay.

Compound | β-galactosidase staining of quadriceps muscle, score versus control (Muscle Cells) | β-galactosidase activity using o-nitrophenyl β-D-galactopyranoside, A405 [1] | production of hepatitus B surface antigen in serum (Liver Cells)
N^4-octylspermidine | positive |  | 
CCCCCCCCCCCCN(CCCN)CCCCN.Cl.Cl.Cl [N^4-dodecylspermidine, N^4-dodecylspermidine trihydrochloride] | positive |  | 
4-[(N^2-[N^2,N^6-bis(3-[4-O(β-D-galactopyranosyl)-β-D-glucopyranosylthio]propionyl)lysyl]N^6-(3-[4-O-(β-D-galactopyranosyl)-β-D-glucopyranosylthio]-propionyl)lysinamido)pentyl]-1,8-diamino-4-azaoctane, acetate salt |  | 1.35 | greater than the positive control
CC(C)CCC[C@@H](C)[C@H]1CC[C@H]2[C@@H]3CC=C4C[C@@H](OC(=O)NCCCCCN(CCCN)CCCCN)CC[C@]4(C)[C@H]3CC[C@]12C.Cl [N^4-(5-cholestene-3′β-oxycarbonyl)aminopentyl spermidine hydrochloride Salt] | positive | 1.35 | greater than the positive control
